Assays:
Assay type in all cases: binding
lysozyme (Lyo) = assay: Intact protein MS photoaffinity labeling screen, lysozyme; details: intact protein MS after 10 min irradiation
Summary of the method: (§1)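 In a single-fragment-per-well plate, protein was exposed to fragment for 15 min before direct intact-mass analysis; labeled protein was identified by the corresponding mass increase.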

myoglobin (Myo) = assay: Intact protein MS photoaffinity labeling screen, myoglobin; details: intact protein MS after 10 min irradiation
Summary of the method: as §1

STAT5B-NTD [1] = tested on: T1, STAT5B-NTD; assay: Intact MS photoaffinity labeling screen, STAT5B-NTD (365 nm, UHPLC-MS); details: for STAT5B-NTD (experimental hit status): PhP library sheet "PhP", binary flag printed as 0 or 1, key not given; for MS labeling percentage, STAT5B: STAT5B-NTD, 365 nm 10 min, no photocatalyst;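 for MS labeling percentage, STAT5B: 0.17 µL of 100 mM DMSO fragment stock added to the protein sample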
T1 construct: His-SUMO (N, cleaved yes); made in house; host or cells: E. coli BL21 RILP
Summary of the method: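 Intact-protein labeling detected by UHPLC-MS in positive ion mode over m/z 100–2000. Samples were first photo-crosslinked at 365 nm for 10 min at 4 °C. Before irradiation, 7 µM STAT5B in PBS pH 7.4 was pre-incubated with probe for 1 h in the dark at room temperature.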

KRas^G12D = tested on: T2, KRas^G12D; assay: Intact MS photoaffinity labeling screen, KRas G12D (302 nm, LCMS-TOF); details: for MS labeling percentage, KRas: KRas G12D, 302 nm 10 min; for KRAS-G12D (experimental hit status): PhP library sheet "PhP", binary flag printed as 0 or 1, key not given
T2 construct: purchased GSK/GenScript
Summary of the method: (§2)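 Labeling detected as mass additions in deconvoluted intact-protein LCMS-TOF spectra. Protein at 1 μM in PBS was first mixed with one fragment per well on ice for 15 min, followed by 10 min UV exposure at 302 nm.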

BRD4-BD1 = tested on: T3, BRD4-BD1; assay: Intact MS photoaffinity labeling screen, BRD4-BD1 (302 nm, LCMS-TOF); details: for MS labeling percentage, BRD4: BRD4-BD1, 302 nm 10 min; for BRD4-BD1 (experimental hit status): PhP library sheet "PhP", binary flag printed as 0 or 1, key not given
T3 construct: screened the PhP library against the first bromodomain of BRD4 (BRD4-BD1); purchased GSK/GenScript
Summary of the method: as §2

STAT5B-NTD [2] = tested on: T1, STAT5B-NTD; assay: Intact MS labeling screen, STAT5B-NTD conjugated with photocatalyst Ir-G2-PEG3-COOH (450 nm); details: 450 nm 10 min;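 note: 0.14 µL of 100 mM DMSO fragment stock added to the conjugate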
Summary of the method: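 Ir-G2-PEG3-COOH photocatalyst (10 eq) activated 30 min with EDC/NHS/BOP, then conjugated to STAT5B-NTD (7 µM) overnight at RT or 1 h at 37 °C in dark. PhP added, 1 h dark, then 450 nm irradiation 10 min at 4 °C; labeling read by intact LC-MS, positive ion mode, m/z 100–2000.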

[3] = tested on: carbonic anhydrase II (CA); assay: Intact protein MS photoaffinity labeling screen, carbonic anhydrase; details: intact protein MS after 10 min irradiation
Summary of the method: as §1

Compound | MS labeling percentage, Lyo (lysozyme (Lyo)) | MS labeling percentage, Myo (myoglobin (Myo)) | STAT5B-NTD (experimental hit status) (STAT5B-NTD [1]) | MS labeling percentage, STAT5B (STAT5B-NTD [1]) | MS labeling percentage, KRas (KRas^G12D) | KRAS-G12D (experimental hit status) (KRas^G12D) | MS labeling percentage, BRD4 (BRD4-BD1) | BRD4-BD1 (experimental hit status) (BRD4-BD1) | MS labeling percentage, STAT5B+photocat (STAT5B-NTD [2]) | MS labeling percentage, CA [3]
CC1(CCC(=O)NCCc2c[nH]c3ccc(OCc4ccccc4)cc23)N=N1 [PhP081, N1=NC1(C)CCC(=O)NCCc(c[nH]2)c(c23)cc(cc3)OCc4ccccc4] | 2.8% | 0.3% | 0 | 1% | 0.5% | 0 | 0.5% | 0 | 4% | 0%
CC1(CCC(=O)NCc2nnc3n2CCC3)N=N1 [PhP083, N1=NC1(C)CCC(=O)NCc(nn2)n(c23)CCC3] | 0% | 0.1% | 0 | 1% | 0.2% | 0 | 0.3% | 0 | 0.7% | 0.4%
CC1(CCC(=O)NCCNC(=O)c2ccncc2)N=N1 [PhP084, N1=NC1(C)CCC(=O)NCCNC(=O)c2ccncc2] | 0% | 0.4% | 0 | 0% | 0.3% | 0 | 0.9% | 0 | 0.7% | 1.6%
CC1(CCC(=O)NC2CCc3[nH]cnc3C2)N=N1 (centres unmarked) [PhP085, N1=NC1(C)CCC(=O)NC(CC2)Cc(c23)nc[nH]3] | 0% | 0.1% | 0 | 1% | 0.3% | 0 | 0.3% | 0 | 1.2% | 0.4%
CC1(CCC(=O)NC(COCc2ccccc2)C(=O)OCc2ccccc2)N=N1 (centres unmarked) [PhP086, c1ccccc1COC(=O)C(NC(=O)CCC2(C)N=N2)COCc3ccccc3] | 0% | 0.2% | 0 | 0% | 0.3% | 0 | 0.2% | 0 | 4.6% | 0.4%
CC1(CCC(=O)Nc2ccc3oc(CN4CCCC4)nc3c2)N=N1 [PhP089, N1=NC1(C)CCC(=O)Nc2ccc3oc(CN4CCCC4)nc3c2] | 0% | 0.1% | 0 | 1% | 0% | 0 | 0.2% | 0 | 1% | 0.4%
Cc1nnc(C(C)NC(=O)CCC2(C)N=N2)[nH]1 (centres unmarked) [PhP090, Cc([nH]1)nnc1C(C)NC(=O)CCC2(C)N=N2] | 0% | 0.2% | 0 | 0% | 0.1% | 0 | 0.3% | 0 | 0.5% | 0.5%
Cn1cnc(CCNC(=O)CCC2(C)N=N2)c1 [PhP091, Cn1cnc(c1)CCNC(=O)CCC2(C)N=N2] | 0% | 0.1% | 0 | 0% | 0.2% | 0 | 0.2% | 0 | 0.3% | 0.7%
Cc1nnc(CNC(=O)CCC2(C)N=N2)[nH]1 [PhP093, Cc1nnc([nH]1)CNC(=O)CCC2(C)N=N2] | 0% | 0.2% | 0 | 2% | 0.3% | 0 | 0.5% | 0 | 0.5% | 0.5%
CC1(CCC(=O)NCCNC(=O)Nc2ccccc2)N=N1 [PhP094, N1=NC1(C)CCC(=O)NCCNC(=O)Nc2ccccc2] | 0.9% | 0.1% | 0 | 1% | 0.5% | 0 | 1.1% | 0 | 2.1% | 0.4%
Cn1nccc1C(=O)NCCNC(=O)CCC1(C)N=N1 [PhP095, Cn1nccc1C(=O)NCCNC(=O)CCC2(C)N=N2] | 0% | 0.1% | 0 | 0% | 0.1% | 0 | 0.4% | 0 | 2.4% | 0.2%

From paper PMC11292009, “Mapping protein binding sites by photoreactive fragment pharmacophores” (Communications Chemistry, 2024)
